Where a SMILES comes first, the peptide text is derived from it. [ ]: non-standard residue; d: D form. The star is where a group is joined. 2Nal = N[C@@H](Cc1ccc2ccccc2c1)C(=O)O; Bta = N[C@@H](Cc1csc2ccccc12)C(=O)O; Pip = O=C(O)[C@@H]1CCCCN1; CH2PO3H2 = O=P(O)(O)C*; Inp = O=C(O)C1CCNCC1

One may read the IC50 as the point on the concentration scale where inhibition reaches its midpoint.

For the first assay, the target named is hPin1 (Protein interacting with NIMA (-kinase)) (Homo sapiens, UniProt Q13526). Put plainly: protease-coupled PPIase assay, hPin1. The class given is biochemical.
hPin1 (Protein interacting with NIMA (-kinase)), sequence (Q13526 whole entry): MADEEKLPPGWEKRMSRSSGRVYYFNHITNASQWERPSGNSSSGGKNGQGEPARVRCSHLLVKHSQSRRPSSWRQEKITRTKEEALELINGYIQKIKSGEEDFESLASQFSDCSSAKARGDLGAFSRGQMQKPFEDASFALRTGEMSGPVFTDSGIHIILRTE
Settings: not given
Consider `NC(=O)[C@H](Cc1ccc2ccccc2c1)NC(=O)[C@@H]1CCCCN1C(=O)[C@H](CSCP(=O)(O)O)NC(=O)Oc1ccccc1` [Compound 46, {3-[2-(1-Carbamoyl-2-naphthalen-2-yl-ethylcarbamoyl)-piperidin-1-yl]3-oxo-2-phenoxycarbonylamino-propylsulfanylmethyl}-phosphonicacid], for which the IC50 is less than 1000 nM.
On the same count and under the same terms, the same measure for `CC(=O)N[C@@H](Cc1csc2ccccc12)C(=O)N[C@@H](COCP(=O)(O)O)C(=O)N1CCCC[C@H]1C(=O)N[C@@H](Cc1ccc2ccccc2c1)C(N)=O` [Compound 1, {2-(2-Acetylamino-3-benzo[b]thiophen-3-yl-propionylamino)-3-[2-(1-carbamoyl-2-naphthalen-2-yl-ethylcarbamoyl)-piperidin-1-yl]-3-oxo-propoxymethyl}-phosphonicacid] (Ac-[Bta]S(CH2PO3H2)[Pip][2Nal]-NH2): 1000 to 10000 nM; for `NC(=O)[C@H](Cc1ccc2ccccc2c1)NC(=O)[C@@H]1CCCCN1C(=O)[C@H](CSCP(=O)(O)O)NC(=O)[C@H](Cc1csc2ccccc12)NC(=O)C1CCNCC1` [Compound 18, {2-{3-Benzo[b]thiophen-3-yl-2-[(piperidine-4-carbonyl)-amino]-propionylamino}-3-[2-(1-carbamoyl-2-naphthalen-2-yl-ethylcarbamoyl)-piperidin-1-yl]-3-oxo-propylsulfanylmethyl}-phosphonic acid] (H-[Inp][Bta]C(CH2PO3H2)[Pip][2Nal]-NH2): less than 1000 nM; for `CC(=O)N1C(=O)SCC1C(=O)N[C@@H](CSCP(=O)(O)O)C(=O)N1CCCC[C@H]1C(=O)N[C@@H](Cc1ccc2ccccc2c1)C(N)=O` (stereo in doubt) [Compound 42, {2-[(3-Acetyl-2-oxo-thiazolidine-4-carbonyl)-amino]-3-[2-(1-carbamoyl-2-naphthalen-2-yl-ethylcarbamoyl)-piperidin-1-yl]-3-oxo-propylsulfanylmethyl}-phosphonic acid]: less than 1000 nM.

Still in this assay, the particulars now being: hPin1 6 nM; substrate Ac-Ala-Ala-Ser(PO3H2)-Pro-Arg-pNA, trypsin; 35 mM HEPES pH 7.8, 6° C.; read-out: Specificity of the inhibition with rotamases, Target T-1 (IC50 class).
For the compound `NC(=O)[C@H](Cc1ccc2ccccc2c1)NC(=O)[C@@H]1CCCCN1C(=O)[C@H](CSCP(=O)(O)O)NC(=O)CCCc1ccccc1` [Compound 23, [3-[2-(1-Carbamoyl-2-naphthalen-2-yl-ethylcarbamoyl)-piperidin-1-yl]-3-oxo-2-(4-phenyl-butyrylamino)-propylsulfanylmethyl]-phosphonicacid], the IC50 was less than 1000 nM.
For the compound `COc1cccc(CC(=O)N[C@@H](CSCP(=O)(O)O)C(=O)N2CCCC[C@H]2C(=O)N[C@@H](Cc2ccc3ccccc3c2)C(N)=O)c1` [Compound 61, {3-[2-(1-Carbamoyl-2-naphthalen-2-yl-ethylcarbamoyl)-piperidin-1-yl]-2-[2-(3-methoxy-phenyl)-acetylamino]-3-oxo-propylsulfanylmethyl}-phosphonicacid], the IC50 is less than 1000 nM.
Still for that read-out and setting: the same measure for `O=C(NCCc1ccccc1)[C@@H]1CCCCN1C(=O)CSCP(=O)(O)O` [Compound 67, [2-Oxo-2-(2-phenethylcarbamoyl-piperidin-1-yl)-ethylsulfanylmethyl]-phosphonicacid]: 1000 to 10000 nM.
Still for that read-out and setting: the same measure for `NC(=O)[C@H](Cc1ccc2ccccc2c1)NC(=O)[C@@H]1CCCCN1C(=O)[C@H](CSCP(=O)(O)O)NC(=O)OCCc1ccccc1` [Compound 47, {3-{2-(1-Carbamoyl-2-naphthalen-2-yl-ethylcarbamoyl)-piperidin-1-yl]-3-oxo-2-phenethyloxycarbonyl-aminopropylsulfanylmethyl}-phosphonic acid]: 1000 to 10000 nM; for `O=C(NC(Cc1ccc2ccccc2c1)c1ccccn1)[C@@H]1CCCCN1C(=O)CSCP(=O)(O)O` (stereo partly shown) [Compound 77, {2-[2-(2-Naphthalen-2-yl-1-pyridin-2-yl-ethylcarbamoyl)-piperidin-1-yl]-2-oxo-ethylsulfanylmethyl}-phosphonicacid]: less than 1000 nM.
The same measure, in the same setting: the same measure for `O=C(NCc1ccccc1)[C@@H]1CCCCN1C(=O)CSCP(=O)(O)O` [Compound 66, [2-(2-Benzylcarbamoyl-piperidin-1-yl)-2-oxo-ethylsulfanylmethyl]-phosphonic acid]: 1000 to 10000 nM; for `CC(=O)N[C@@H](Cc1csc2ccccc12)C(=O)N[C@@H](CSCP(=O)(O)O)C(=O)N(C)NC(=O)N[C@@H](Cc1ccc2ccccc2c1)C(N)=O` [Compound 27, Ac-Bta-Cys(CH2—P(O)(OH)2)-NMeazaGly-2Nal-NH2]: less than 1000 nM.
Consider `Cc1csc(C(Cc2ccc3ccccc3c2)NC(=O)[C@@H]2CCCCN2C(=O)CSCP(=O)(O)O)n1` (stereo partly shown) [Compound 74, (2-{2-[1-(4-Methyl-thiazol-2-yl)-2-naphthalen-2-yl-ethylcarbamoyl]-piperidin-1-yl}-2-oxo-ethylsulfanylmethyl)-phosphonic acid], for which the IC50 lay in the range of 1000 to 10000 nM.
Same read-out and setting: the same measure for `O=C(NC(Cc1ccc2ccccc2c1)c1nnc[nH]1)[C@@H]1CCCCN1C(=O)CSCP(=O)(O)O` (stereo partly shown) [Compound 76, (2-{2-[2-Naphthalen-2-yl-1-(4H-[1,2,4]triazol-3-yl)-ethylcarbamoyl]-piperidin-1-yl}-2-oxo-ethylsulfanylmethyl)-phosphonic acid]: less than 1000 nM; for `Cc1cc(C)c(S(=O)(=O)N[C@@H](CSCP(=O)(O)O)C(=O)N2CCCC[C@H]2C(=O)N[C@@H](Cc2ccc3ccccc3c2)C(N)=O)c(C)c1` [Compound 52, [3-[2-(1-Carbamoyl-2-naphthalen-2-yl-ethylcarbamoyl)-piperidin-1-yl]-3-oxo-2-(2.4.6-trimethyl-benzenesulfonylamino)-propylsulfanylmethyl]-phosphonicacid]: 1000 to 10000 nM; for `NC(=O)[C@H](Cc1ccc2ccccc2c1)NC(=O)[C@@H]1CCCCN1C(=O)CCSCP(=O)(O)O` [Compound 29, {3-[2-(1-Carbamoyl-2-naphthalen-2-yl-ethylcarbamoyl)-piperidin-1-yl]-3-oxo-propylsulfanylmethyl}-phosphonic acid]: less than 1000 nM.
For the compound `CC(C)(C)NC(=O)[C@H](Cc1ccc2ccccc2c1)NC(=O)[C@@H]1CCCCN1C(=O)CSCP(=O)(O)O` [Compound 63, {2-[2-(1-tert-Butylcarbamoyl-2-naphthalen-2-yl-ethylcarbamoyl)-piperidin-1-yl]-2-oxo-ethylsulfanylmethyl}-phosphonicacid], the IC50 is less than 1000 nM.
For the compound `NC(=O)[C@H](Cc1ccc2ccccc2c1)NC(=O)[C@@H]1CCCCN1C(=O)[C@H](CSCP(=O)(O)O)NS(=O)(=O)Cc1ccccc1` [Compound 32, {3-[2-(1-Carbamoyl-2-naphthalen-2-yl-ethylcarbamoyl)-piperidin-1-yl]-3-oxo-2-phenylmethane-sulfonylaminopropylsulfanyl-methyl}-phosphonic acid], the IC50 is less than 1000 nM.
The same measure, in the same setting: the same measure for `O=C(Nc1ccccc1)[C@@H]1CCCCN1C(=O)CSCP(=O)(O)O` [Compound 60, [2-Oxo-2-(2-phenylcarbamoyl-piperidin-1-yl)-ethylsulfanylmethyl]-phosphonicacid]: 1000 to 10000 nM; for `COc1cc(CC(=O)N[C@@H](CSCP(=O)(O)O)C(=O)N2CCCC[C@H]2C(=O)N[C@@H](Cc2ccc3ccccc3c2)C(N)=O)cc(OC)c1` [Compound 57, {3-[2-(1-Carbamoyl-2-naphthalen-2-yl-ethylcarbamoyl)-piperidin-1-yl]-2-[2-(3.5-dimethoxy-phenyl)-acetylamino]-3-oxo-propylsulfanylmethyl}-phosphonicacid]: less than 1000 nM.
